# Values quoted from earlier work, collected in US7375136B2, “pH-dependent NMDA receptor antagonists” (Emory University, priority 2001, dated 2008).
# Target: NR2B subunit-containing recombinant NMDA receptors (Homo sapiens, UniProt Q05586+Q13224)
# Details: pH 6.8 compared to pH 7.5; cited from earlier work
# Sequence of NR2B subunit-containing recombinant NMDA receptors (Q13224 27-1484, other chains not shown): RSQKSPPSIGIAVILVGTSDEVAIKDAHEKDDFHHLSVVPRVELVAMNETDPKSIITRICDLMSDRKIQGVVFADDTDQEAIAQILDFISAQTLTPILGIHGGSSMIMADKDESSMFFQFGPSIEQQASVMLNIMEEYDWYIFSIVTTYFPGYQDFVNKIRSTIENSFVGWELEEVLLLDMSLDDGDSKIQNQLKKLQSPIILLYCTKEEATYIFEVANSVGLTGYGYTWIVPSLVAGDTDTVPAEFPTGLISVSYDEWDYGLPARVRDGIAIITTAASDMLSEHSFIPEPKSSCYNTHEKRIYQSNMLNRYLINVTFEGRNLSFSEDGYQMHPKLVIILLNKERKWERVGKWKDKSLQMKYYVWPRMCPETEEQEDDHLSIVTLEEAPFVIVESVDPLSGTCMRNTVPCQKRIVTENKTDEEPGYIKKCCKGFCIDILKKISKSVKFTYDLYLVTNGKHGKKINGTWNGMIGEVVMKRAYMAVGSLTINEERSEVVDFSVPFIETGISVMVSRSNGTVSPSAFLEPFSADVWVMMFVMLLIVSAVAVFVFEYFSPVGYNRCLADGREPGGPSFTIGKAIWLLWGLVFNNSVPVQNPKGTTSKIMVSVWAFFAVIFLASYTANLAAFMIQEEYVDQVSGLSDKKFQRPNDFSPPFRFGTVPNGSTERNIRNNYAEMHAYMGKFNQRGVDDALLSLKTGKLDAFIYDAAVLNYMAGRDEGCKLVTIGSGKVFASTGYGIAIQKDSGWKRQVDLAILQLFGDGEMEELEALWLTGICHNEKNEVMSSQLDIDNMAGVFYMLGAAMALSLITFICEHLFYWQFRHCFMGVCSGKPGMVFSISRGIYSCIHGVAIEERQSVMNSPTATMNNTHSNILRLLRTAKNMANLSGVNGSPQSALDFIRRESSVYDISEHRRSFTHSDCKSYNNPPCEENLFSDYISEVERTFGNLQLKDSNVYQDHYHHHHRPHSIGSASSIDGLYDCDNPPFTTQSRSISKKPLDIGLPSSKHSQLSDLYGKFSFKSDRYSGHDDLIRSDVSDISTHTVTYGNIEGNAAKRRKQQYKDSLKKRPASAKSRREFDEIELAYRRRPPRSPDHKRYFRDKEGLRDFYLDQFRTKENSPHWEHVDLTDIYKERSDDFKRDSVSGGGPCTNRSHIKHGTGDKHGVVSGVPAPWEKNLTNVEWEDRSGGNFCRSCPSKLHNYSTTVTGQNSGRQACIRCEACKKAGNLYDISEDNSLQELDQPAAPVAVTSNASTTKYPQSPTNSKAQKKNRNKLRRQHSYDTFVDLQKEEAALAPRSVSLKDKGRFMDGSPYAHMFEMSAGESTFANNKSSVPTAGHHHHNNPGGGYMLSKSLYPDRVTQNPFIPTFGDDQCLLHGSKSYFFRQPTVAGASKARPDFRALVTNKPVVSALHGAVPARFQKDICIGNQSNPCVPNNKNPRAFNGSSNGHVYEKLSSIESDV
smiles,measurement,value
CC(C(O)c1ccc(O)cc1)N1CCC(Cc2ccccc2)CC1 (stereo not shown) [Ifenprodil],potency for inhibition of NR2B subunit-containing recombinant NMDA receptors as a function of pH,enhanced at pH 6.8 compared to pH 7.5
